# Data taken from patent publication US5539127A, “7-substituted oxa- or azasteroid compound” (Teikoku Hormone Mfg. Co., Ltd., priority 1992, dated 1996).
# Structures can show the parent of a compound that is named as a salt.
# Columns and labels:
# aromatase [1] = experiment: Assay of aromatase-inhibiting action (in vivo), inhibition of DHEAS-induced cornification of vaginal smear; set-up: species or system rat; conditions: for Inhibition rate (cornification-inhibiting action against cornification in the solvent administration group): mature female rats after enucleation of the pituitary gland, 2 mg/kg test compound orally with 16 mg/kg DHEAS once a day, 4 days, smears of day 3 to 5
# Experimental: (2) Assay of aromatase-inhibiting action (in vivo)
# Aromatase-inhibiting action was assayed according to the method developed by G. H. Deckers and A. H. W. M. Schuurs (Journal of Steroid Biochemistry,32, 625-631, (1989)).
# Namely, groups of mature female rats at one week after enucleation of the pituitary gland were used, each group consisting of 8 to 10 animals. 16 mg/kg of dehydroepiandrosterone sulfate (DHEAS) and 5 ml/kg of a solvent (physiological saline containing 2% polysorbate 80), or DHEAS and 2 mg/kg of a test compound suspended in the solvent were orally administered to each rat once a day for the succeeding 4 days. For 6 days starting from the next day of the first administration, vaginal smear was sampled and observed by a microscope after being stained with Giemsa staining solution. Cornification of the vaginal smear with DHEAS was observed from 3 days after the first administration, and its action disappeared 6 days thereafter. Therefore, the cornification smear number was assumed to be the total of 3 days from the third day to fifth day after the initiation of administration. A cornification-inhibiting action with a test compound was expressed as the rate against cornification in the solvent administration group.
# In this connection, the cornification of vaginal smear is caused by estrogens biosynthesized from DHEAS by aromatase, and therefore, when aromatase is inhibited, inhibition of cornification is observed.
# aromatase [2] = biological target: T1, aromatase (Homo sapiens, UniProt P11511); experiment: Assay of aromatase-inhibiting action (in vitro), human placental microsome, 3H2O release from [1,2-3H]androstenedione; format: biochemical; conditions: 2 μM [1,2-3H]androstenedione, 180 μM NADPH, pH 7.5, 37° C., 20 minutes
# T1 construct: 150 μg of freeze dried human placental microsome; from tissue; host or cells: human placenta, microsomes
# T1 sequence (P11511 1-503): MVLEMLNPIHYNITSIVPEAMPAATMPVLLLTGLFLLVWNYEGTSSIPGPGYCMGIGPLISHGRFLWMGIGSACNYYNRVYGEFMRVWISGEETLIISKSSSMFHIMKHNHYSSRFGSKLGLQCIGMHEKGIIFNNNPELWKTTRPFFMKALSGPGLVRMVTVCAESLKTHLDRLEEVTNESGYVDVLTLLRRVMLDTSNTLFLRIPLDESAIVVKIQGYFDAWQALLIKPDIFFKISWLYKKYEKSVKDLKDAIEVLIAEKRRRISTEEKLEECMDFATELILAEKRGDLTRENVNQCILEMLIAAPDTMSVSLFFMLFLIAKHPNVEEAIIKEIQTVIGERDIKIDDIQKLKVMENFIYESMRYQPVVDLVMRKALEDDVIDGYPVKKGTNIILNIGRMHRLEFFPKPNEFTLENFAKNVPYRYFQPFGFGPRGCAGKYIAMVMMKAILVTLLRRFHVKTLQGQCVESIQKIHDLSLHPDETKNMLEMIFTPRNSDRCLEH
# Experimental: (1) Assay of aromatase-inhibiting action (in vitro)
# Human placental microsome (centrifuged at 105,000×g for 60 minutes) was prepared, according to the method of Ryan (The Journal of Biological Chemistry, 234, 268-272, (1959)). The microsome was used after it was washed twice with 0.5 mM dithiothreitol solution, freeze dried, and stored at -20° C.
# The aromatase-inhibiting action was assayed according to the method developed by Tompson and Siiteri (Journal of Biological Chemistry, 249, 5373-5378, (1974)). Namely, the method comprises quantitatively determining ^3 H2 O released through aromatization of [1,2-^3 H]androstenedione. The experiment using the enzyme was performed in 67 mM phosphate buffer (pH 7.5) so that the final amount of the incubation solution could be 0.5 ml. The incubation solution contained 180 μM of NADPH, 2μM of [1,2-^3 H]androstenedione, 150 μg of freeze dried human placental microsome, 25 μl of methanol and a test compound in various concentrations. Incubation was performed in the air at 37° C. for 20 minutes, the reaction was terminated with addition of 3 ml of chloroform, and the mixture was stirred for 40 seconds. The mixture was centrifuged at 700×g for 10 minutes, 0.3 ml of the aqueous solution was taken from the supernatant, the scintillation mixture was added, and the amount of ^3 H2 O formed was measured.
# [3] = 16 mg/kg DHEAS orally, once a day, rats
structure (smiles),measurement,setting,value
"C[C@]12CC[C@H](OS(=O)(=O)O)CC1=CC[C@@H]1[C@@H]2CC[C@]2(C)C(=O)CC[C@@H]12 [DHEAS, dehydroepiandrosterone sulfate, reference compound]",Cornification of the vaginal smear with DHEAS observed from (days after the first administration),aromatase [1]; [3],3 days
same,disappearance of the cornification action of DHEAS (days thereafter),aromatase [1]; [3],6 days
"C[C@]12CCC(=O)C=C1C[C@@H](Sc1ccc(N)cc1)[C@@H]1[C@@H]2CC[C@]2(C)C(=O)OCC[C@@H]12 [Example 1, 7α-[(4-aminophenyl)thio]-D-homo-17-oxaandrost-4-ene-3,17a-dione]",IC50,aromatase [2],2300 nM
"C[C@]12C=CC(=O)C=C1C[C@@H](S)[C@@H]1[C@@H]2CC[C@]2(C)C(=O)OCC[C@@H]12 [Example 16, 7α-mercapto-D-homo-17-oxaandrosta-1,4-diene-3,17a-dione]",Inhibition rate (cornification-inhibiting action against cornification in the solvent administration group),aromatase [1],70.6 ± 15.6%
same,IC50,aromatase [2],500 nM
"C[C@]12CC[C@H]3[C@@H]([C@H](S)CC4=CC(=O)C=C[C@@]43C)[C@@H]1CCOC2 [Example 8, 7α-mercapto-D-homo-17-oxaandrosta-1,4-dien-3-one]",Inhibition rate (cornification-inhibiting action against cornification in the solvent administration group),aromatase [1],68.2 ± 13.6%
same,IC50,aromatase [2],400 nM
"CC(=O)S[C@H]1CC(=O)C=C2C[C@@H](SC(C)=O)[C@@H]3[C@H](CC[C@]4(C)C(=O)OCC[C@@H]34)[C@]21C [Example 43, 1α,7α-bis(acetylthio)-D-homo-17-oxaandrost-4-ene-3,17a-dione]",Inhibition rate (cornification-inhibiting action against cornification in the solvent administration group),aromatase [1],70.6 ± 15.6%
